These results are taken from patent publication US20120129811A1, “TRICYCLIC INHIBITORS OF PRO-MATRIX METALLOPROTEINASE ACTIVATION” (priority 2010, published 2012).

For this assay, the target named is T1, proMMP9 activation to active MMP9 in rat synoviocytes (Rattus norvegicus, UniProt P50282).
T1 construct: endogenous in cells; host or cells: primary synoviocytes from SCW-arthritic female Lewis rats, TNFα-stimulated
As to the kind of experiment: Activation of proMMP9 in rat synoviocyte cultures (Western blot). The class given is cell-based. The text has this:
Activation of proMMP9 in Rat Synoviocyte Cultures
A primary synoviocytes line was derived from the periarticular tissue of arthritic rats. Arthritis was induced in female Lewis rats following an i.p. administration of streptococcal cell wall peptidoglycan polysaccharides (J Exp Med 1977; 146:1585-1602). Rats with established arthritis were sacrificed, and hind-limbs were severed, immersed briefly in 70% ethanol, and placed in a sterile hood. The skin was removed and the inflamed tissue surrounding the tibia-tarsal joint was harvested using a scalpel. Tissue from six rats was pooled, minced to approximately 8 mm^3 pieces, and cultured in Dulbecco's Modified Eagle's Medium (DMEM) containing 15% fetal calf serum (FCS). In the following weeks, cells migrated out of the tissue piece, proliferated, and formed a monolayer of adherent cells. The synoviocytes were lifted from culture plates with 0.05% trypsin and passaged weekly at 1:4 ratios in DMEM containing 10% FCS. Synoviocytes were used at passage 9 to investigate the ability of Compound-α to inhibit the maturation of MMP9 to active form.
Rat synoviocytes spontaneously expressed and activated MMP9 when cultured in collagen gels and stimulated with tumor necrosis factor-alpha (TNFα) (FIG. 1 and Table 3). Eight volumes of an ice-cold solution of 3.8 mg/mL rat tail collagen (Sigma Cat #C3867-1VL) were mixed with 1 volume of 1 M sodium bicarbonate and 1 volume of 10× Roswell Park Memorial Institute medium. The pH of the mixture was adjusted to pH 7 with 1 N sodium hydroxide and equal volumes of the pH-adjusted collagen solution were mixed with DMEM containing 0.8 million synoviocytes per mL. One half mL volumes were dispensed into Costar 24-well culture dishes and placed for one hr at 37° C. and 5% CO2, during which time the collagen solution formed a gel. Individual gels were dislodged into wells of 12-well Costar plates containing 1 mL/well of DMEM adjusted to contain 0.05% BSA and 100 ng/mL mouse TNFα (R&D Systems Cat #410-MT-010). […] After overnight culture at 37° C. and 5% CO2, wells were adjusted to contain an additional 0.5 mL of DMEM containing 0.05% BSA and Compound-α at 4× the final desired concentration (final culture volumes were 2 mL). The plates were cultured an additional 48 hrs, at which time 1 mL of conditioned media were harvested into fresh eppendorf tubes containing 40 μL/mL of a 50% slurry of gelatin-conjugated sepharose (GE Healthcare Cat #17-0956-01). Samples were rotated for 2 hrs at 4° C. before centrifugation 1 min×200 g. Supernatants were discarded. The gelatin-sepharose pellets were washed once with 1 mL of ice cold DMEM, resuspended in 50 μL of 2× reducing Leamli buffer and heated 5 min at 95° C. Fifteen μL of eluted proteins were resolved on 4-12% NuPAGE gels and transferred to 0.45 μm pore-sized nitrocellose blots. Next, blots were incubated in blocking buffer (5% milk in Tris-buffered saline containing 0.1% Tween-20) for 1 hr at RT and probed overnight (4° C.) with blocking buffer containing 1 μg/mL primary antibodies. Blots were next probed 1 hr at RT with 1/10,000 dilutions of goat anti-mouse IgG-HRP or goat anti-rabbit IgG-HRP (Santa Cruz) in blocking buffer and developed using SuperSignal® West Fempto Maximum Sensitivity Substrate. Chemiluminesence signal was analyzed using a ChemiDoc imaging system (BioRad Laboratories) and Quantity One® image software. Electrophoretic mobility was estimated based on the mobility of standards (Novex Sharp Pre-Stained Protein Standards P/N 57318). […]
For orientation: Immunoblotting shows a protein as a band on a membrane.

T1 sequence (P50282 20-708 limits assumed): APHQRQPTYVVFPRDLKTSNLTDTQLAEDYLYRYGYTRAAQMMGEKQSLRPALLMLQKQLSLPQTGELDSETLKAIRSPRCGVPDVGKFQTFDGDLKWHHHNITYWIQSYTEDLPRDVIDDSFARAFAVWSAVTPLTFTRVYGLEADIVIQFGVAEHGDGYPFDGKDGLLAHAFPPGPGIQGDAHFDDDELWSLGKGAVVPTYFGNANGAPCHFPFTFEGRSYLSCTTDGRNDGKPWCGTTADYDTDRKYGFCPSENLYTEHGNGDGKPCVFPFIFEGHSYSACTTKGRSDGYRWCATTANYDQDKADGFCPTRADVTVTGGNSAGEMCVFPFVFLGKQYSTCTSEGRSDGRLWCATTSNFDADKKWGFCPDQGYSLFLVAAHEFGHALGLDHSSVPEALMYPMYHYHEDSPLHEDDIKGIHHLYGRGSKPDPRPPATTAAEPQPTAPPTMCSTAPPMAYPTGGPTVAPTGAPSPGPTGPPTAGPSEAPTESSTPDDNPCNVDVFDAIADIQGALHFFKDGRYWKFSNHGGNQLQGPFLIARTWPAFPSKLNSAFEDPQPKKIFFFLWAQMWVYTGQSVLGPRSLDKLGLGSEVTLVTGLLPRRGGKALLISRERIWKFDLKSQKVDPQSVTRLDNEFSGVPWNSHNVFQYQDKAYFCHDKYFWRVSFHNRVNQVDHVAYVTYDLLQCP

On to `Cc1nc(C)c(-c2csc(Nc3cc(S(N)(=O)=O)ccc3OC(C)C)n2)s1` [Compound α, 3-(2′,4′-Dimethyl-[4,5′]bithiazolyl-2-ylamino)-4-isopropoxy-benzenesulfonamide.HBr], for which the inhibition (commonly the share of the control response that was lost under treatment) at 0.37 µM (0.37 μM Compound-α, 80 kD active MMP9, pAb-1246) worked out at 12%. The compound further yielded an inhibition at 1.1 µM (1.1 μM Compound-α, 80 kD active MMP9, pAb-1246) of 46%. Also, for the setting “3.3 μM Compound-α, 80 kD active MMP9, pAb-1246”, 3.3 µM produced 86% inhibition. The compound also gave an inhibition at 10 µM (10 μM Compound-α, 80 kD active MMP9, pAb-1246) of 97%. In addition, the concentration for half-maximal inhibition (IC50) (as a rule, the concentration at which inhibition is half-maximal) (rat synoviocytes, pAb-1246 band chemiluminescence, read-out: IC50 for inhibition of production of active MMP9) was ~1100 nM.
